Experimental data published in ChEMBL document CHEMBL1201862, “PubChem BioAssay data set” (2004).
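Step 1: Grow cells in 96-well plates. Step 2: Expose to compound for 48 hours at 5 concentrations. Step 3: Interpolate endpoints linearly; if unreached, use highest concentration. GI50 marks 50% less growth.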 Calls of active or inactive are those of the source. Rule as the data show it: active = GI50 up to about 1.1 µM and inactive = higher.

Assays:
Assay in all cases: growth of human tumour cells (NCI), 48 h
Hs-578T = tested on: Hs-578T
T47D = tested on: T47D
OVCAR-4 = tested on: OVCAR-4
MCF7 = tested on: MCF7
TK-10 = tested on: TK-10
A498 = tested on: A498
SF-539 = tested on: SF-539
UACC-62 = tested on: UACC-62
KM12 = tested on: KM12
HCT-15 = tested on: HCT-15
HCC 2998 = tested on: HCC 2998
U-251 = tested on: U-251
MDA-MB-231 = tested on: MDA-MB-231
SF-295 = tested on: SF-295
SR = tested on: SR
NCI/ADR-RES = tested on: NCI/ADR-RES
IGROV-1 = tested on: IGROV-1
OVCAR-8 = tested on: OVCAR-8
DU-145 = tested on: DU-145
SNB-19 = tested on: SNB-19
COLO 205 = tested on: COLO 205
BT-549 = tested on: BT-549
SW-620 = tested on: SW-620
MDA-MB-435 = tested on: MDA-MB-435
SK-MEL-5 = tested on: SK-MEL-5
SN12C = tested on: SN12C
SK-OV-3 = tested on: SK-OV-3
NCI-H23 = tested on: NCI-H23
CCRF-CEM = tested on: CCRF-CEM
EKVX = tested on: EKVX
NCI-H226 = tested on: NCI-H226
NCI-H522 = tested on: NCI-H522
786-0 = tested on: 786-0
MDA-N = tested on: MDA-N
OVCAR-5 = tested on: OVCAR-5
PC-3 = tested on: PC-3
CAKI-1 = tested on: CAKI-1
K562 = tested on: K562
SK-MEL-2 = tested on: SK-MEL-2
ACHN = tested on: ACHN
OVCAR-3 = tested on: OVCAR-3
HCT-116 = tested on: HCT-116
HT-29 = tested on: HT-29
RPMI-8226 = tested on: RPMI-8226
Malme-3M = tested on: Malme-3M
SF-268 = tested on: SF-268
HL-60 = tested on: HL-60
M14 = tested on: M14
MOLT-4 = tested on: MOLT-4
UACC-257 = tested on: UACC-257
RXF 393 = tested on: RXF 393
NCI-H460 = tested on: NCI-H460
A549 = tested on: A549
HOP-62 = tested on: HOP-62
SK-MEL-28 = tested on: SK-MEL-28
LOX IMVI = tested on: LOX IMVI
UO-31 = tested on: UO-31
SNB-75 = tested on: SNB-75
HOP-92 = tested on: HOP-92

Measured: GI50

COc1cc2c(cc1OC)C(=O)N(NC1=NCCN1)C2=O
> 100 µM: HCT-15
inactive: Hs-578T > 100 µM | T47D > 100 µM | OVCAR-4 > 100 µM | MCF7 > 100 µM | TK-10 > 100 µM | A498 > 100 µM | SF-539 > 100 µM | UACC-62 > 100 µM | KM12 > 100 µM | HCC 2998 > 100 µM | U-251 > 100 µM | MDA-MB-231 > 100 µM | SF-295 > 100 µM | SR 63 µM | NCI/ADR-RES > 100 µM | IGROV-1 > 100 µM | OVCAR-8 > 100 µM | DU-145 > 100 µM | SNB-19 > 100 µM | COLO 205 > 100 µM | BT-549 > 100 µM | SW-620 > 100 µM | MDA-MB-435 > 100 µM | SK-MEL-5 > 100 µM | SN12C > 100 µM | SK-OV-3 > 100 µM | NCI-H23 > 100 µM | CCRF-CEM > 100 µM | EKVX > 100 µM | NCI-H226 > 100 µM | NCI-H522 > 100 µM | 786-0 > 100 µM | MDA-N > 100 µM | OVCAR-5 > 100 µM | PC-3 > 100 µM | CAKI-1 > 100 µM | K562 > 100 µM | SK-MEL-2 > 100 µM | ACHN > 100 µM | OVCAR-3 > 100 µM | HCT-116 > 100 µM | HT-29 > 100 µM | RPMI-8226 > 100 µM | Malme-3M > 100 µM | SF-268 > 100 µM | HL-60 > 100 µM | M14 > 100 µM | MOLT-4 > 100 µM | UACC-257 > 100 µM | RXF 393 > 100 µM | NCI-H460 > 100 µM | A549 > 100 µM | HOP-62 > 100 µM | SK-MEL-28 > 100 µM | LOX IMVI > 100 µM

COc1ccc2c(Cc3c4ccccc4cc4ccccc34)cncc2c1O
inactive: Hs-578T 1.58 µM | T47D 17.2 µM | OVCAR-4 5.37 µM | TK-10 3.94 µM | UO-31 4.4 µM | SNB-75 3.9 µM | A498 3.99 µM | UACC-62 2.9 µM | KM12 1.93 µM | U-251 1.45 µM | MDA-MB-231 2.51 µM | SF-295 1.55 µM | IGROV-1 2.92 µM | DU-145 2.77 µM | SNB-19 2.08 µM | COLO 205 17.7 µM | BT-549 5.69 µM | HOP-92 1.81 µM | SN12C 5.01 µM | SK-OV-3 2.96 µM | NCI-H23 2.37 µM | EKVX 8.22 µM | NCI-H226 3.27 µM | 786-0 4.21 µM | OVCAR-5 13.5 µM | PC-3 5.14 µM | CAKI-1 4.15 µM | SK-MEL-2 2.87 µM | ACHN 2.14 µM | OVCAR-3 1.98 µM | HCT-116 1.48 µM | HT-29 14.2 µM | RPMI-8226 1.85 µM | Malme-3M 5.86 µM | SF-268 3.79 µM | HL-60 1.87 µM | M14 2.26 µM | MOLT-4 2.68 µM | UACC-257 2.32 µM | RXF 393 3.4 µM | NCI-H460 1.45 µM | A549 3.44 µM | HOP-62 4.11 µM | SK-MEL-28 14.1 µM
1.15 µM: HCT-15
active: MCF7 0.638 µM | SF-539 0.245 µM | SR 0.21 µM | NCI/ADR-RES 0.67 µM | OVCAR-8 1.1 µM | SW-620 0.857 µM | MDA-MB-435 0.239 µM | SK-MEL-5 0.658 µM | CCRF-CEM 0.36 µM | NCI-H522 0.698 µM | MDA-N 0.404 µM | K562 0.655 µM | LOX IMVI 0.394 µM
